Data reported in US20050191668A1, “Methods of using peroxisome proliferator-activated receptor alpha target genes” (priority 2004, published 2005).

Experiments:
Format in all cases: cell-based, human
[1] = tested on: Pa13 gene; assay: Pa13 gene expression by real-time RT-PCR in HuH7 hepatocytes
Description: (§1) Human hepatocyte HuH7 cells, which are epithelial cells of liver, were obtained from Japan Health Science Research Resources Bank (Osaka, Japan). Human primary adipocytes, which are connective tissue cells specialized for the synthesis and storage of fat, were obtained from Zen-Bio, Inc (Research Triangle Park, NC). Human primary skeletal muscle cells (SKMC) were obtained from Cambrex Bio Science (Walkersville, Md.). PPARα agonists, Wy14643 (Agatha, et al, 2000, Archives of Biochemistry and Biophysics 380:353-359) and fenofibrates were obtained from Cayman Chemical (Ann Arbor, Mich.) and Sigma (St Louis, Mo.), respectively.
(§2) Human HuH7 cells were cultured in Dulbecco's Modified Eagle Medium with 10% Fetal Bovine Serum (Gibco, N.Y.). Cells were treated with charcoal-stripped, delipidated calf serum (5%) (Sigma, St Louis, Mo.) for about 4-18 hours. Then, cells were treated with different concentrations of PPARα agonist (Wy14643 or fenofibrates) for about 20-24 h. Human SKM cells were cultured in Skeletal Muscle Growth Medium (Cambrex Bio Science, Walkersville, Md.), and were treated with different concentrations of PPARα agonist (Wy14643 or fenofibrates) for about 18-20 hours. Human primary adipocytes were cultured in Preadipocyte Medium, (Cat #PM—1, Zen-Bio, Inc., Research Triangle Park, NC), and were treated with different concentrations of PPARα agonist (Wy14643 or fenofibrates) for about 18-20 hours.
(§3) Total RNA was purified from cultured cells following the protocol provided by the manufacturer (Trizon method, Invitrogen Inc. Ca). The polymerase chain reaction (PCR) primers and fluorescent probes (TagMan probes) for Pa9, Pa13, and Pa21 were designed from GenBank sequences of accession numbers W30988, AB000584, and NM_080725, respectively. The primers and probes were designed using the software PrimerDesign (Applied Biosystems, Foster City, Calif.). The PCR primers for Pa9 were SEQ ID NO: 7, (5-[…]) and SEQ ID NO: 8 (5-[…]). […] The PCR primers for Pa13 were SEQ ID NO: 10 (5-[…], T) and SEQ ID NO: 11 (5-[…] T). […] The PCR primers for Pa21 were SEQ ID NO: 13 (5-[…] C) and SEQ ID NO: 14 (5-[…]). […] All primers and probes were synthesized by Keystone Labs (Camarillo, Calif.).
(§4) Reverse transcription (RT) and PCR were conducted in one step using “One-Step RT-PCR Master Mix Reagent” kit (Applied Biosystems, Foster City, Calif.) in ABI PRISM 7700 Sequence Detection System (Applied Biosystems). Each reaction was performed in a total volume of 25 μl containing 40 ng of total RNA. The reaction condition was: 48° C. for 30 minutes, 60° C. for 30 minutes, 94° C. for 5 minutes, followed by 40 cycles of 94° C. for 20 seconds and 60° C. for 1 minute. The primers for 18S ribosomal RNA were developed and provided by Applied Biosystems. The measurement of human 18S ribosomal RNA was used as an internal control for normalization of measuring and loading errors. PCR data were collected by Ct value (the cycle number at which logarithmic PCR plots cross a calculated threshold line) according to the manufacturer's guidelines and the value was used to determine the Δ^Ct (Ct of the target gene minus the Ct of 18S ribosomal RNA controls). Relative mRNA level was calculated using the equation 2^−ΔΔCt as described previously (Heid et al., 1996, Genome Res. 6:986-994).

[2] = tested on: Pa21 gene; assay: Pa21 gene expression by real-time RT-PCR in primary adipocytes; settings: about 18-20 hours, vehicle control = 100
Description: as §1, §2, §3, §4

[3] = tested on: Pa13 gene; assay: Pa13 gene expression by real-time RT-PCR in primary skeletal muscle cells; settings: about 18-20 hours, vehicle control = 100
Description: as §1, §2, §3, §4

[4] = tested on: Pa13 gene; assay: Pa13 gene expression by real-time RT-PCR in primary adipocytes; settings: about 18-20 hours, vehicle control = 100
Description: as §1, §2, §3, §4

[5] = tested on: Pa21 gene; assay: Pa21 gene expression by real-time RT-PCR in primary skeletal muscle cells; settings: about 18-20 hours, vehicle control = 100
Description: as §1, §2, §3, §4

[6] = tested on: Pa9 gene; assay: Pa9 gene expression by real-time RT-PCR in HuH7 hepatocytes; settings: HuH7 hepatocytes
Description: as §1, §2, §3, §4

[7] = tested on: Pa9 gene; assay: Pa9 gene expression by real-time RT-PCR in primary adipocytes; settings: 50 uM, about 18-20 hours, vehicle control = 100
Description: as §1, §2
Total RNA was purified from cultured cells following the protocol provided by the manufacturer (Trizon method, Invitrogen Inc. Ca). The polymerase chain reaction (PCR) primers and fluorescent probes (TagMan probes) for Pa9, Pa13, and Pa21 were designed from GenBank sequences of accession numbers W30988, AB000584, and NM_080725, respectively. The primers and probes were designed using the software PrimerDesign (Applied Biosystems, Foster City, Calif.). The PCR primers for Pa9 were SEQ ID NO: 7, (5-[…]) and SEQ ID NO: 8 (5-[…]). […] The PCR primers for Pa13 were SEQ ID NO: 10 (5-[…], T) and SEQ ID NO: 11 (5-[…] T). […] The PCR primers for Pa21 were SEQ ID NO: 13 (5-[…] C) and SEQ ID NO: 14 (5-[…]). […]
Reverse transcription (RT) and PCR were conducted in one step using “One-Step RT-PCR Master Mix Reagent” kit (Applied Biosystems, Foster City, Calif.) in ABI PRISM 7700 Sequence Detection System (Applied Biosystems). […] PCR data were collected by Ct value (the cycle number at which logarithmic PCR plots cross a calculated threshold line) according to the manufacturer's guidelines and the value was used to determine the Δ^Ct (Ct of the target gene minus the Ct of 18S ribosomal RNA controls). Relative mRNA level was calculated using the equation 2^−ΔΔCt as described previously (Heid et al., 1996, Genome Res. 6:986-994).

[8] = tested on: Pa9 gene; assay: Pa9 gene expression by real-time RT-PCR in primary skeletal muscle cells; settings: about 18-20 hours, vehicle control = 100
Description: as §1, §2, §3, §4
The nucleotide sequence of the human FDRG gene (AX278133) is provided in SEQ ID NO: 1 and the sequence alignment between W30988 and FDRG gene is shown in FIG. 1. […] Quantitative real-time RT-PCR was performed to test whether gene expression of the human FDRG gene is regulated by PPARα.

[9] = tested on: Pa21 gene; assay: Pa21 gene expression by real-time RT-PCR in HuH7 hepatocytes
Description: as §1, §2, §3, §4

[10] = 3 uM, about 20-24 h, vehicle control = 100
[11] = 10 uM, about 20-24 h, vehicle control = 100
[12] = 30 uM, about 20-24 h, vehicle control = 100
[13] = 100 uM, about 20-24 h, vehicle control = 100
[14] = 300 uM, about 20-24 h, vehicle control = 100
[15] = 1 μM, vehicle control = 100 (Table 4)

CC(C)OC(=O)C(C)(C)Oc1ccc(C(=O)c2ccc(Cl)cc2)cc1 [Fenofibrate]
Pa13 (N26311) gene expression, Percentage ± SE (%) [1, 10]: 180 ± 43.9%
Pa13 (N26311) gene expression, Percentage ± SE (%) [1, 11]: 160 ± 55%
Pa13 (N26311) gene expression, Percentage ± SE (%) [1, 12]: 250 ± 4.8%
Pa13 (N26311) gene expression, Percentage ± SE (%) [1, 13]: 750 ± 10.8%
Pa13 (N26311) gene expression, Percentage ± SE (%) [1, 14]: 710 ± 7.3%
Pa21 (H4960) gene expression, Percentage ± SE (%) ([2]; 10 uM): 63 ± 5.6%
Pa21 (H4960) gene expression, Percentage ± SE (%) ([2]; 50 uM): 109 ± 4.5%
Pa21 (H4960) gene expression, Percentage ± SE (%) ([2]; 250 uM): 121 ± 17.3%
Pa13 (N26311) gene expression, Percentage ± SE (%) ([3]; 3 uM): 72.7 ± 30.9%
Pa13 (N26311) gene expression, Percentage ± SE (%) ([3]; 10 uM): 63.6 ± 11.8%
Pa13 (N26311) gene expression, Percentage ± SE (%) ([3]; 30 uM): 181.8 ± 3%
Pa13 (N26311) gene expression, Percentage ± SE (%) ([3]; 100 uM): 218.2 ± 2.9%
Pa13 (N26311) gene expression, Percentage ± SE (%) ([3]; 300 uM): 309.1 ± 7.4%
Pa13 (N26311) gene expression, Percentage ± SE (%) ([4]; 10 uM): 70 ± 27.1%
Pa13 (N26311) gene expression, Percentage ± SE (%) ([4]; 50 uM): 45 ± 13.3%
Pa13 (N26311) gene expression, Percentage ± SE (%) ([4]; 250 uM): 206 ± 34.4%
Pa21 (H4960) gene expression, Percentage ± SE (%) ([5]; 3 uM): 110 ± 14.5%
Pa21 (H4960) gene expression, Percentage ± SE (%) ([5]; 10 uM): 290 ± 1.4%
Pa21 (H4960) gene expression, Percentage ± SE (%) ([5]; 30 uM): 280 ± 52.5%
Pa9 (W38098) gene expression, Percentage ± SE (%) [6, 10]: 110 ± 12.7%
Pa9 (W38098) gene expression, Percentage ± SE (%) [6, 11]: 90 ± 23%
Pa9 (W38098) gene expression, Percentage ± SE (%) [6, 12]: 80 ± 2%
Pa9 (W38098) gene expression, Percentage ± SE (%) [6, 13]: 140 ± 37.1%
Pa9 (W38098) gene expression, Percentage ± SE (%) [6, 14]: 200 ± 11.5%
Pa9 (W38098) gene expression, Percentage ± SE (%) [7]: 127 ± 1.5%
Pa9 (W38098) gene expression, Percentage ± SE (%) ([8]; 3 uM): 120 ± 34.2%
Pa9 (W38098) gene expression, Percentage ± SE (%) ([8]; 10 uM): 230 ± 15.7%
Pa9 (W38098) gene expression, Percentage ± SE (%) ([8]; 30 uM): 340 ± 7.4%
Pa9 (W38098) gene expression, Percentage ± SE (%) ([8]; 100 uM): 350 ± 19.7%
Pa9 (W38098) gene expression, Percentage ± SE (%) ([8]; 300 uM): 550 ± 14%
Pa21 (H4960) gene expression, Percentage ± SE (%) [9, 10]: 63.6 ± 17.3%
Pa21 (H4960) gene expression, Percentage ± SE (%) [9, 11]: 227.3 ± 54%
Pa21 (H4960) gene expression, Percentage ± SE (%) [9, 12]: 209.1 ± 20.4%
Pa21 (H4960) gene expression, Percentage ± SE (%) [9, 13]: 300 ± 20.6%
Pa21 (H4960) gene expression, Percentage ± SE (%) [9, 14]: 336.4 ± 24.3%

CN(CCOc1ccc(CC2SC(=O)NC2=O)cc1)c1ccccn1 (centres unmarked) [Rosiglitazone]
Pa13 (N26311) gene expression, Percentage ± SE (%) [1, 15]: 217 ± 20.2%
Pa9 (W38098) gene expression, Percentage ± SE (%) [6, 15]: 147 ± 31.2%
Pa21 (H4960) gene expression, Percentage ± SE (%) [9, 15]: 97 ± 17.5%
